Molecules are shown by their SMILES. Active and inactive are the calls of the source.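 How the source made its calls: active means fitted curve reaches 200% activation at or below the highest valid dose tested for that compound; inconclusive means flat fit between 30 and 70% activation, or unreliable fit; inactive means the rest.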

The target of the first assay is Endoplasmic reticulum aminopeptidase 2 (Homo sapiens) (UniProt Q6P179). In words: enhanced ERAP2 Arg-AMC hydrolysis – biochemical, fluorescence plate reader, cherry-picked samples, selectivity assay for selective ERAP1 modulator project, dose response (AID 743319). The settings on record: recombinant ERAP2, Arg-AMC cleavage fluorescence, 1 h.
Endoplasmic reticulum aminopeptidase 2 (Homo sapiens), sequence (Q6P179 whole entry, looked up): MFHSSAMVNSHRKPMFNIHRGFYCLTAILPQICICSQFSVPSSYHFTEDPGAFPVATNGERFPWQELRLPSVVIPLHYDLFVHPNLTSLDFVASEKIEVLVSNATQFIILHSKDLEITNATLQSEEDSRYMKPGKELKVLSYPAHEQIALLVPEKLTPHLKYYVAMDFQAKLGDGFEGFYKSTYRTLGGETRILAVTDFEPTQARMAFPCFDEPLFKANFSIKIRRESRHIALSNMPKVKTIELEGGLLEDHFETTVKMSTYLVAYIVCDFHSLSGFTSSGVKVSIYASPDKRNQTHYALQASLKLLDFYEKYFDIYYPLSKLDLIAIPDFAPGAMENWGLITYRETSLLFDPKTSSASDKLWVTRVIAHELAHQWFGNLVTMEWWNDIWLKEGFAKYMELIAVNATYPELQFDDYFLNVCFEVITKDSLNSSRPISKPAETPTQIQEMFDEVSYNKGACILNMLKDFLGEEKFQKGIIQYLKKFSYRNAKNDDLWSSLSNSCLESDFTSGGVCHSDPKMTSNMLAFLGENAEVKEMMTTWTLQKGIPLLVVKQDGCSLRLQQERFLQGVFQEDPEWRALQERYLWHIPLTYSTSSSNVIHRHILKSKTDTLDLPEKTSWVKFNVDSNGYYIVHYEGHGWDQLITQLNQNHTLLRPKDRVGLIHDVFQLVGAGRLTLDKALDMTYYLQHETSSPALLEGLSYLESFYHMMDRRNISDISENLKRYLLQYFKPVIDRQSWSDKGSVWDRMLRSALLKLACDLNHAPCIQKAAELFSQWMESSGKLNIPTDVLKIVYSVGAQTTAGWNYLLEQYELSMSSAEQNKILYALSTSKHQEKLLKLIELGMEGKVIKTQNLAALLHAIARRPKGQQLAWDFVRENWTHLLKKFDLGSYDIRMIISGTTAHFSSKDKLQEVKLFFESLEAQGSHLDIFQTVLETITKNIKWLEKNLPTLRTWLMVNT
For the compound `Cc1c(C)c2ccc(O)c(CN3CCCC3)c2oc1=O`, the AC200 is 2100 nM. For the compound `COc1cccc(CN(C)Cc2cc(=O)oc3cc(O)c(Cl)cc23)c1`, the AC200 was 1620 nM. As to `CCCN1[C@@H]2c3ccc(/C=C/c4ccccc4)c(=O)n3C[C@H]1[C@H](CO)[C@H]2C(=O)NCc1ccccn1`, the AC200 is 2190 nM.

`CCCCc1cc(=O)oc2cc(O)ccc12`: the AC200 is 3980 nM.

Consider `CCCN1[C@@H]2Cn3c(ccc(/C=C/c4ccccc4)c3=O)[C@H]1[C@@H](C(=O)NCc1ccccn1)[C@@H]2CO`, for which the AC200 is 2260 nM. The same measure, in the same setting: the value for `N#Cc1c(N)n(CCNC(=O)c2ccccc2)c2nc3ccccc3nc12` was 4630 nM; that for `O=c1cc(CN2CCOCC2)c2cc(Cl)c(O)cc2o1` was 2510 nM.

Regarding `O=C(NCC1CC1)[C@H]1[C@H](CO)[C@H]2Cn3c(ccc(/C=C/c4ccccc4)c3=O)[C@@H]1N2C(=O)C1CC1`, the AC200 was 1770 nM.

On to `CCN(CC)c1ccc2c(C)c(Cl)c(=O)oc2c1`, for which the AC200 is 1420 nM. Same read-out and setting: the value for `CCc1c(C)c2cc(Cl)c(O)c(CN(C)C)c2oc1=O` was 803 nM.

Regarding `O=c1cc(CN2CCN(Cc3ccccc3)CC2)c2ccc(O)cc2o1`, the AC200 was 3540 nM. Turning to `CC(=O)Oc1cc2oc(=O)cc(C)c2cc1Cl`, the AC200 was 1100 nM.

Consider `Cc1cc(=O)oc2cc(OCC(=O)N3CCN(C(C)c4ccccc4)CC3)c(Cl)cc12` (configuration not stated), for which the AC200 was 3960 nM.

As for `COc1cc2ccc(=O)oc2cc1O`, the AC200 was 678 nM. In the case of `COC(=O)[C@@H]1[C@@H](CO)[C@@H]2Cn3c(ccc(/C=C/c4ccccc4)c3=O)[C@H]1N2C(=O)C1CCC1`, the AC200 was 2170 nM. On the same count and under the same terms, with `O=c1oc2cc(O)ccc2cc1S(=O)(=O)c1ccccc1` the figure was 592 nM; with `CN1CCCC1CCNc1ccc2c(=O)c3ccccc3oc2c1` (configuration not stated), 1140 nM.

With `CCNC(=O)[C@@H]1[C@@H](CO)[C@@H]2Cn3c(ccc(/C=C/c4ccccc4)c3=O)[C@H]1N2C(=O)C1CCCC1`, the AC200 was 1590 nM. Still for that read-out and setting: with `CCN1CCN(Cc2c(O)ccc3c(C)cc(=O)oc23)CC1` the figure was 3230 nM; with `CC(=O)N1[C@@H]2Cn3c(ccc(/C=C/c4ccccc4)c3=O)[C@H]1[C@@H](C(=O)NCC1CC1)[C@@H]2CO`, 2500 nM; with `C/C(=N\NC(=O)CC#N)c1cc2ccc(O)cc2oc1=O`, 2300 nM. `Cc1ccc2nc3c(cc(C(=O)NCc4ccccc4)c(=N)n3CCCn3ccnc3)c(=O)n2c1`: the AC200 was > 11000 nM (inactive).

Take `COCCCn1c(C(=O)N2CCOCC2)cc2c(=O)n3ccccc3nc21`: the AC200 was 6360 nM.

As to `COCC(=O)N1[C@@H]2Cn3c(ccc(/C=C/c4ccccc4)c3=O)[C@H]1[C@@H](C(=O)N1CCOCC1)[C@@H]2CO`, the AC200 was 1550 nM. On the same count and under the same terms, with `CCNC(=O)[C@H]1[C@H](CO)[C@H]2Cn3c(ccc(/C=C/c4ccccc4)c3=O)[C@@H]1N2C(=O)C1CCCC1` the figure was 1830 nM.

Regarding `Cc1c(C)c2ccc(O)c(CN3CCN(C)CC3)c2oc1=O`, the AC200 is 3430 nM.

In the case of `O=c1ccc2cc(O[C@@H]3O[C@H](CO)[C@@H](O)[C@H](O)[C@H]3O)c(O)cc2o1`, the AC200 is 687 nM.

`CCc1cc(=O)oc2c(CNCc3c(F)cccc3Cl)c(O)ccc12`: the AC200 is 1870 nM.

Consider `O=c1ccc2cc(O[C@@H]3O[C@@H](CO)[C@H](O)[C@@H](O)[C@@H]3O)c(O)cc2o1`, for which the AC200 is 744 nM.

Still in this assay, the particulars now being: recombinant ERAP2, Arg-AMC cleavage fluorescence, 1 h; at 5 µM (top of the series).
Turning to `CCCN(C)C[C@@H]1OCCCC[C@@H](C)Oc2ccc(NS(=O)(=O)c3ccc(C)cc3)cc2C(=O)N([C@@H](C)CO)C[C@@H]1C`, the activation was 6.28% (inactive).

The assay is the same for the next values; noted with them: recombinant ERAP2, Arg-AMC cleavage fluorescence, 1 h; at 5.6 µM (top of the series).
As for `C[C@@H]1CCCCO[C@@H](CN(C)Cc2ccccc2)[C@@H](C)CN([C@H](C)CO)C(=O)c2cc(NS(=O)(=O)c3cccs3)ccc2O1`, the activation was 12.1% (inactive). For the compound `COc1ccc(S(=O)(=O)N(C)C[C@@H]2Oc3ncccc3C(=O)N([C@H](C)CO)C[C@@H]2C)cc1`, the activation was 11.3% (inactive).

The same assay, now with this note: recombinant ERAP2, Arg-AMC cleavage fluorescence, 1 h; at 10 µM (top of the series).
Regarding `Cc1noc(C)c1S(=O)(=O)N(C)C[C@@H]1OCCCC[C@@H](C)Oc2ccc(NS(=O)(=O)c3cccs3)cc2C(=O)N([C@@H](C)CO)C[C@@H]1C`, the activation was 21.7% (inactive). Still for that read-out and setting: the value for `CCCN(C)C[C@@H]1OCCCC[C@@H](C)Oc2ccc(NS(=O)(=O)c3ccc(C)cc3)cc2C(=O)N([C@H](C)CO)C[C@@H]1C` was 6.04% (inactive).

Staying with this assay, now noted: recombinant ERAP2, Arg-AMC cleavage fluorescence, 1 h; at 11 µM (top of the series).
`C[C@@H]1CN([C@H](C)CO)C(=O)c2cc(NC(=O)Nc3ccc(F)cc3)ccc2O[C@H]1CN(C)Cc1ccc(C(=O)O)cc1`: the activation is 1.24% (inactive).

`C[C@@H]1CCCCO[C@@H](CN(C)C)[C@@H](C)CN([C@@H](C)CO)C(=O)c2cc(NS(=O)(=O)c3ccc(F)cc3)ccc2O1`: the activation is 5.3% (inactive). In the case of `O=C(Nc1ccc(C(F)(F)F)cc1)N1[C@@H]2CNC[C@H]1C2c1ccc(-c2ccncc2)cc1` (some centres not stated), the activation was 1.51% (inactive).

For `COc1ccc(CN(C)C[C@@H]2OCCCC[C@@H](C)Oc3ccc(NS(=O)(=O)c4cccs4)cc3C(=O)N([C@H](C)CO)C[C@H]2C)cc1`, the activation was 1.04% (inactive). Take `C[C@H]1CN([C@@H](C)CO)C(=O)c2cccc(NC(=O)Nc3ccc(C(F)(F)F)cc3)c2O[C@@H]1CN(C)C`: the activation is 2.76% (inactive). Same read-out and setting: the value for `COc1ccc(C(=O)O)cc1S(=O)(=O)Nc1cc(C(F)(F)F)ccc1N1CCCCC1` was 8.35% (inactive); that for `CCCNC(=O)C[C@H]1CC[C@@H]2[C@H](COC[C@H](O)CN2C(=O)Nc2cccc(Cl)c2)O1` was 19.4% (inactive).

As to `C[C@@H]1CCCCO[C@H](CN(C)Cc2ccc(C(=O)O)cc2)[C@H](C)CN([C@@H](C)CO)C(=O)c2cc(NC(=O)Nc3ccc(C(F)(F)F)cc3)ccc2O1`, the activation is 11.3% (inactive). Turning to `Cc1ccccc1-c1ccc2c(c1)O[C@@H](CN(C)Cc1ccc(C(=O)O)cc1)[C@@H](C)CN([C@H](C)CO)S2(=O)=O`, the activation is 8.67% (inactive). Consider `CCCN(C)C[C@@H]1OCCCC[C@@H](C)Oc2ccc(NS(=O)(=O)c3ccccc3)cc2C(=O)N([C@H](C)CO)C[C@@H]1C`, for which the activation was 16% (inactive).

As for `COc1ccc(CN(C)C[C@@H]2OCCCC[C@@H](C)Oc3ccc(NS(=O)(=O)c4cccs4)cc3C(=O)N([C@@H](C)CO)C[C@H]2C)cc1`, the activation was -1.25% (inactive). Turning to `O=C(C[C@H]1CC[C@H]2[C@@H](COC[C@@H](O)CN2C(=O)Nc2cccc(Cl)c2)O1)N1CCCCC1`, the activation was 8.71% (inactive).

Regarding `CCCNC(=O)C[C@@H]1CC[C@@H]2[C@H](COC[C@H](O)CN2C(=O)Nc2cccc(Cl)c2)O1`, the activation is 22.2% (inactive). Same read-out and setting: the value for `Cc1noc(C)c1NC(=O)N(C)C[C@@H]1Oc2c(NC(=O)Nc3ccc(F)cc3)cccc2C(=O)N([C@H](C)CO)C[C@@H]1C` was 18.4% (inactive). The same measure, in the same setting: the value for `C[C@@H]1CCCCO[C@@H](CN(C)CC2CC2)[C@@H](C)CN([C@H](C)CO)C(=O)c2cc(NS(=O)(=O)c3cccs3)ccc2O1` was 14.7% (inactive); that for `O=C(O)c1ccccc1NS(=O)(=O)c1cccc(-n2sc3ccccc3c2=O)c1` was 3.47% (inactive); that for `C[C@@H]1CCCCO[C@@H](CN(C)CC2CCCCC2)[C@H](C)CN([C@@H](C)CO)C(=O)c2cc(NC(=O)Nc3ccccc3)ccc2O1` was 12.1% (inactive).

For the compound `C[C@@H]1CCCCO[C@H](CN(C)Cc2ccccc2)[C@H](C)CN([C@H](C)CO)C(=O)c2cc(NS(=O)(=O)c3ccccc3)ccc2O1`, the activation was 22.4% (inactive). Still for that read-out and setting: the value for `Cc1noc(C)c1NC(=O)Nc1ccc2c(c1)C(=O)N([C@H](C)CO)C[C@@H](C)[C@@H](CN(C)Cc1ccc(C(F)(F)F)cc1)OCCCC[C@@H](C)O2` was -2.75% (inactive). Consider `COC(=O)[C@H]1[C@H](CO)[C@H]2Cn3c(ccc(-c4ccncc4)c3=O)[C@H]2N1Cc1ccccc1F`, for which the activation was 15.2% (inactive). Turning to `CCN(CCCl)c1cc(CN(C)C)cc(NC(=O)c2ccc(C(=O)Nc3cc(CN(C)C)cc(N(CC)CCCl)c3)cc2)c1`, the activation was -8.9% (inactive).

Take `COc1ccc(NC(=O)Nc2ccc3c(c2)C(=O)N([C@H](C)CO)C[C@@H](C)[C@H](CN(C)Cc2ccc(C(=O)O)cc2)OCCCC[C@@H](C)O3)cc1`: the activation was 12.3% (inactive). Regarding `CO[C@@H]1CN(C)C(=O)c2ccc(NC(=O)Nc3cccc(Cl)c3)cc2OC[C@@H](C)NC[C@H]1C`, the activation is 3.9% (inactive). Same read-out and setting: the value for `NC(=NCCc1c[nH]c2ccccc12)NS(=O)(=O)c1cc(F)ccc1F` was 9.24% (inactive); that for `CCn1cc(CN2CCCC(C(=O)Nc3ccc(-c4nc5ccccc5[nH]4)cc3)C2)c(C)n1` (configuration not stated) was 4.78% (inactive); that for `C[C@H](CO)N1C[C@H](C)[C@H](CN(C)Cc2ccc(C(=O)O)cc2)Oc2c(NC(=O)Nc3ccccc3)cccc2C1=O` was 22.8% (inactive). Same read-out and setting: the value for `COc1ccc(CN(C)C[C@H]2OCCCC[C@@H](C)Oc3ccc(NS(=O)(=O)c4cccs4)cc3C(=O)N([C@@H](C)CO)C[C@H]2C)cc1` was 2.79% (inactive). The same measure, in the same setting: the value for `C[C@H](CO)N1C[C@H](C)[C@H](CN(C)Cc2ccncc2)Oc2c(NC(=O)Nc3ccc(C(F)(F)F)cc3)cccc2C1=O` was 4.68% (inactive). Take `CC(=O)N1CCN(C(=O)C2(NC(=O)Nc3ccc(C)cc3)CCCCC2)CC1`: the activation is 2.05% (inactive). Same read-out and setting: the value for `C[C@@H]1CCCCO[C@H](CN(C)Cc2ccc(C(=O)O)cc2)[C@@H](C)CN([C@H](C)CO)C(=O)c2cc(NC(=O)Nc3ccc(C(F)(F)F)cc3)ccc2O1` was 2.62% (inactive).

As for `C[C@H]1CN([C@@H](C)CO)C(=O)c2cccc(NC(=O)Nc3ccc(C(F)(F)F)cc3)c2O[C@@H]1CN(C)CC1CC1`, the activation was -16.1% (inactive). The same measure, in the same setting: the value for `C[C@H](CO)N1C[C@H](C)[C@H](CN(C)CC2CCCCC2)Oc2c(NC(=O)Nc3ccc4c(c3)OCO4)cccc2C1=O` was -0.254% (inactive). Still for that read-out and setting: with `COc1ccc(S(=O)(=O)Nc2ccc3c(c2)C(=O)N([C@@H](C)CO)C[C@H](C)[C@H](CN(C)C)OCCCC[C@@H](C)O3)cc1` the figure was 5.02% (inactive).

The record behind these values is PubChem BioAssay AID743319 (Broad Institute, 2014).
